Experimental data published in US8883841B2, “Oncogenic ras-specific cytotoxic compound and methods of use thereof” (The Board of Regents of the University of Texas System, priority 2005, dated 2014).

Key:
[1] = test system: panel of 60 cancer cell lines; assay: NCI Developmental Therapeutics Program in-vitro testing, panel of 60 cancer cell lines (whole panel); type: cell-based; settings: leukemia, non small lung, colon, melanoma, ovarian, renal, breast
MOLT-4 = assay: NCI in-vitro testing, MOLT-4 (Leukemia)
CCRF-CEM = assay: NCI in-vitro testing, CCRF-CEM (Leukemia)
SF-268 = assay: NCI in-vitro testing, SF-268 (CNS Cancer)
SF-539 = assay: NCI in-vitro testing, SF-539 (CNS Cancer)
SNB-19 = assay: NCI in-vitro testing, SNB-19 (CNS Cancer)
SNB-75 = assay: NCI in-vitro testing, SNB-75 (CNS Cancer)
LOX IMVI = assay: NCI in-vitro testing, LOX IMVI (Melanoma)
ACHN = assay: NCI in-vitro testing, ACHN (Renal Cancer)
786-0 = assay: NCI in-vitro testing, 786-0 (Renal Cancer)
RXF 393 = assay: NCI in-vitro testing, RXF 393 (Renal Cancer)
DU-145 = assay: NCI in-vitro testing, DU-145 (Prostate Cancer)
HOP-62 = assay: NCI in-vitro testing, HOP-62 (Non-Small Cell Lung Cancer)
NCI-H23 = assay: NCI in-vitro testing, NCI-H23 (Non-Small Cell Lung Cancer)
NCI-H522 = assay: NCI in-vitro testing, NCI-H522 (Non-Small Cell Lung Cancer)
Sw620 = assay: Cell viability, Sw620 colon cancer cells; type: cell-based, human; settings: Sw620, Colon

SMILES: O=Cc1cn(Cc2cccc(Cl)c2)c2ccccc12 [Oncrasin K027, 1-(3-chlorobenzyl)-1H-indole-3-carbaldehyde]
- anticancer spectrum in NCI panel [1]: active in a number of cancer cell lines
- CC50 (MOLT-4; Homo sapiens, MOLT-4, read-out: LC50): 82.6 µM
- TGI (MOLT-4; MOLT-4): 3.82E−5 Molar
- Percent Growth (MOLT-4; MOLT-4, Log10 Concentration −4.0 Molar): −62%
- Percent Growth (MOLT-4; MOLT-4, Log10 Concentration −5.0 Molar): 87%
- Percent Growth (MOLT-4; MOLT-4, Log10 Concentration −6.0 Molar): 109%
- Percent Growth (MOLT-4; MOLT-4, Log10 Concentration −7.0 Molar): 102%
- Percent Growth (MOLT-4; MOLT-4, Log10 Concentration −8.0 Molar): 114%
- GI50 (CCRF-CEM; Homo sapiens): 1.74 µM
- CC50 (CCRF-CEM; Homo sapiens, read-out: LC50): 14.8 µM
- Percent Growth (CCRF-CEM; Log10 Concentration −4.0 Molar): −67%
- Percent Growth (CCRF-CEM; Log10 Concentration −5.0 Molar): −47%
- Percent Growth (CCRF-CEM; Log10 Concentration −6.0 Molar): 87%
- Percent Growth (CCRF-CEM; Log10 Concentration −7.0 Molar): 97%
- Percent Growth (CCRF-CEM; Log10 Concentration −8.0 Molar): 100%
- GI50 (SF-268; Homo sapiens, SF-268): 1.24 µM
- CC50 (SF-268; Homo sapiens, SF-268, read-out: LC50): > 100 µM
- TGI (SF-268; SF-268): 4.58E−5 Molar
- Percent Growth (SF-268; SF-268, Log10 Concentration −4.0 Molar): −30%
- Percent Growth (SF-268; SF-268, Log10 Concentration −5.0 Molar): 58%
- Percent Growth (SF-268; SF-268, Log10 Concentration −6.0 Molar): 94%
- Percent Growth (SF-268; SF-268, Log10 Concentration −7.0 Molar): 93%
- Percent Growth (SF-268; SF-268, Log10 Concentration −8.0 Molar): 106%
- GI50 (SF-539; Homo sapiens, SF-539): 10.9 µM
- CC50 (SF-539; Homo sapiens, SF-539, read-out: LC50): 86.6 µM
- TGI (SF-539; SF-539): 2.70E−5 Molar
- Percent Growth (SF-539; SF-539, Log10 Concentration −4.0 Molar): −73%
- Percent Growth (SF-539; SF-539, Log10 Concentration −5.0 Molar): 55%
- Percent Growth (SF-539; SF-539, Log10 Concentration −6.0 Molar): 104%
- Percent Growth (SF-539; SF-539, Log10 Concentration −7.0 Molar): 110%
- Percent Growth (SF-539; SF-539, Log10 Concentration −8.0 Molar): 108%
- GI50 (SNB-19; Homo sapiens, SNB-19): 17.6 µM
- CC50 (SNB-19; Homo sapiens, SNB-19, read-out: LC50): > 100 µM
- TGI (SNB-19; SNB-19): 5.89E−5 Molar
- Percent Growth (SNB-19; SNB-19, Log10 Concentration −4.0 Molar): −24%
- Percent Growth (SNB-19; SNB-19, Log10 Concentration −5.0 Molar): 74%
- Percent Growth (SNB-19; SNB-19, Log10 Concentration −6.0 Molar): 97%
- Percent Growth (SNB-19; SNB-19, Log10 Concentration −7.0 Molar): 97%
- Percent Growth (SNB-19; SNB-19, Log10 Concentration −8.0 Molar): 103%
- GI50 (SNB-75; Homo sapiens, SNB-75): 7.64 µM
- CC50 (SNB-75; Homo sapiens, SNB-75, read-out: LC50): 62.8 µM
- TGI (SNB-75; SNB-75): 2.31E−5 Molar
- Percent Growth (SNB-75; SNB-75, Log10 Concentration −4.0 Molar): −73%
- Percent Growth (SNB-75; SNB-75, Log10 Concentration −5.0 Molar): 42%
- Percent Growth (SNB-75; SNB-75, Log10 Concentration −6.0 Molar): 112%
- Percent Growth (SNB-75; SNB-75, Log10 Concentration −7.0 Molar): 119%
- Percent Growth (SNB-75; SNB-75, Log10 Concentration −8.0 Molar): 118%
- TGI (LOX IMVI): 1.68E−5 Molar
- GI50 (LOX IMVI; Homo sapiens): 0.0448 µM
- CC50 (LOX IMVI; Homo sapiens, read-out: LC50): 47.2 µM
- Percent Growth (LOX IMVI; Log10 Concentration −4.0 Molar): −86%
- Percent Growth (LOX IMVI; Log10 Concentration −5.0 Molar): 25%
- Percent Growth (LOX IMVI; Log10 Concentration −6.0 Molar): 96%
- Percent Growth (LOX IMVI; Log10 Concentration −7.0 Molar): 95%
- Percent Growth (LOX IMVI; Log10 Concentration −8.0 Molar): 102%
- TGI (ACHN): 2.25E−5 Molar
- GI50 (ACHN; Homo sapiens): 2.88 µM
- CC50 (ACHN; Homo sapiens, read-out: LC50): > 100 µM
- Percent Growth (ACHN; Log10 Concentration −4.0 Molar): −30%
- Percent Growth (ACHN; Log10 Concentration −5.0 Molar): 16%
- Percent Growth (ACHN; Log10 Concentration −6.0 Molar): 76%
- Percent Growth (ACHN; Log10 Concentration −7.0 Molar): 92%
- Percent Growth (ACHN; Log10 Concentration −8.0 Molar): 99%
- TGI (786-0; 785-0): 2.19E−5 Molar
- Percent Growth (786-0; 785-0, Log10 Concentration −4.0 Molar): −52%
- Percent Growth (786-0; 785-0, Log10 Concentration −5.0 Molar): 27%
- Percent Growth (786-0; 785-0, Log10 Concentration −6.0 Molar): 70%
- Percent Growth (786-0; 785-0, Log10 Concentration −7.0 Molar): 88%
- Percent Growth (786-0; 785-0, Log10 Concentration −8.0 Molar): 69%
- GI50 (786-0; Homo sapiens, 786-0): 3.4 µM
- CC50 (786-0; Homo sapiens, 786-0, read-out: LC50): 84.7 µM
- GI50 (RXF 393; Homo sapiens, RXF 393): < 0.01 µM
- CC50 (RXF 393; Homo sapiens, RXF 393, read-out: LC50): 23.2 µM
- TGI (RXF 393; RXF 393): 2.44E−7 Molar
- Percent Growth (RXF 393; RXF 393, Log10 Concentration −4.0 Molar): −85%
- Percent Growth (RXF 393; RXF 393, Log10 Concentration −5.0 Molar): −30%
- Percent Growth (RXF 393; RXF 393, Log10 Concentration −6.0 Molar): −12%
- Percent Growth (RXF 393; RXF 393, Log10 Concentration −7.0 Molar): 7%
- Percent Growth (RXF 393; RXF 393, Log10 Concentration −8.0 Molar): 31%
- TGI (DU-145; DU-145): 2.78E−5 Molar
- Percent Growth (DU-145; DU-145, Log10 Concentration −4.0 Molar): −53%
- Percent Growth (DU-145; DU-145, Log10 Concentration −5.0 Molar): 42%
- Percent Growth (DU-145; DU-145, Log10 Concentration −6.0 Molar): 98%
- Percent Growth (DU-145; DU-145, Log10 Concentration −7.0 Molar): 108%
- Percent Growth (DU-145; DU-145, Log10 Concentration −8.0 Molar): 108%
- GI50 (DU-145; Homo sapiens, DU-145): 7.25 µM
- CC50 (DU-145; Homo sapiens, DU-145, read-out: LC50): 93.3 µM
- TGI (HOP-62; HOP-62): 1.93E−5 Molar
- Percent Growth (HOP-62; HOP-62, Log10 Concentration −4.0 Molar): −37%
- Percent Growth (HOP-62; HOP-62, Log10 Concentration −5.0 Molar): 15%
- Percent Growth (HOP-62; HOP-62, Log10 Concentration −6.0 Molar): 35%
- Percent Growth (HOP-62; HOP-62, Log10 Concentration −7.0 Molar): 87%
- Percent Growth (HOP-62; HOP-62, Log10 Concentration −8.0 Molar): 91%
- GI50 (HOP-62; Homo sapiens, HOP-62): 0.35 µM
- CC50 (HOP-62; Homo sapiens, HOP-62, read-out: LC50): > 100 µM
- GI50 (NCI-H23; Homo sapiens, NCI-H23): 2.9 µM
- CC50 (NCI-H23; Homo sapiens, NCI-H23, read-out: LC50): 71.1 µM
- TGI (NCI-H23; NCI-H23): 2.10E−5 Molar
- Percent Growth (NCI-H23; NCI-H23, Log10 Concentration −4.0 Molar): −54%
- Percent Growth (NCI-H23; NCI-H23, Log10 Concentration −5.0 Molar): 31%
- Percent Growth (NCI-H23; NCI-H23, Log10 Concentration −6.0 Molar): 57%
- Percent Growth (NCI-H23; NCI-H23, Log10 Concentration −7.0 Molar): 82%
- Percent Growth (NCI-H23; NCI-H23, Log10 Concentration −8.0 Molar): 94%
- TGI (NCI-H522): 1.24E−5 Molar
- GI50 (NCI-H522; Homo sapiens, NCI-H522): 2.41 µM
- CC50 (NCI-H522; Homo sapiens, NCI-H522, read-out: LC50): 51 µM
- Percent Growth (NCI-H522; Log10 Concentration −4.0 Molar): −74%
- Percent Growth (NCI-H522; Log10 Concentration −5.0 Molar): 7%
- Percent Growth (NCI-H522; Log10 Concentration −6.0 Molar): 76%
- Percent Growth (NCI-H522; Log10 Concentration −7.0 Molar): 82%
- Percent Growth (NCI-H522; Log10 Concentration −8.0 Molar): 91%

SMILES: O=Cc1cn(Cc2ccc(Cl)cc2)c2ccccc12 [Oncrasin K001, 1H-Indole-3-carboxaldehyde, 1-[(4-chlorophenyl)methyl]-(9CI)]
- IC50 (−LogM) (Sw620): 5.4 −LogM
